Source: patent US20210300894A1, “CRYSTALLINE FORM OF N-[1-(5-CYANO-PYRIDIN-2-YLMETHYL)-1 H-PYRAZOL-3-YL]-2-[4-(1-TRIFLUO-ROMETHYL-CYCLOPROPYL)-PHENYL]-ACETAMIDE” (IDORSIA PHARMACEUTICALS LTD, priority 2017, published 2021)

Assay: Gravimetric vapour sorption (GVS) analysis, moisture sorption at 25° C.
Type: physicochemical
Conditions: stepping mode in steps of 5% RH, classification according to Ph. Eur.
Protocol: Gravimetric Vapour Sorption (GVS) Analysis
Measurements were performed on an IGASORP Model HAS-036-080 moisture sorption instrument (Hiden Isochema, Warrington, UK) operated in stepping mode at 25° C. The sample was allowed to equilibrate at the starting relative humidity (RH) before starting a pre-defined humidity program in steps of 5% ARH and with a maximal equilibration time of 24 hours per step. About 20 to 30 mg of each sample was used.

Moisture sorption at 25° C. (GVS), hygroscopicity according to Ph. Eur.: not hygroscopic according to Ph. Eur
SMILES: N#Cc1ccc(Cn2ccc(NC(=O)Cc3ccc(C4(C(F)(F)F)CC4)cc3)n2)nc1 [COMPOUND in crystalline form 1, N-[1-(5-cyano-pyridin-2-ylmethyl)-1H-pyrazol-3-yl]-2-[4-(1-trifluoromethyl-cyclopropyl)-phenyl]-acetamide]
